# From patent US20250186391A1, “ORAL COMPLEMENT FACTOR D INHIBITORS” (BioCryst Pharmaceuticals, Inc., priority 2019, published 2025)
# pIC50: −log10 of the molar value.
# Target: Factor D (Homo sapiens (Human), UniProt P00746)
# Assay: Factor D esterolytic assay
# Type: biochemical
# Conditions: Z-Lys-SBzl substrate, 100 mM HEPES, 500 mM NaCl, pH 7.5, 10% DMSO; tested a minimum of three times; read-out: Measured Ki (IC50) Value for Compounds: IC50
# In short: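 Chromogenic thioesterase read-out: Z-Lys-SBzl (1.29 mM) hydrolysis by human Factor D, thiol detected with DTNB at 405 nm (690 nm background subtracted) for 600 s. Run in 100 mM HEPES, 500 mM NaCl, pH 7.5, 10% DMSO, substrate added immediately or after room-temperature preincubation. IC50 from percent inhibition versus enzyme alone, n≥3.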
# Sequence of Factor D (P00746 26-253): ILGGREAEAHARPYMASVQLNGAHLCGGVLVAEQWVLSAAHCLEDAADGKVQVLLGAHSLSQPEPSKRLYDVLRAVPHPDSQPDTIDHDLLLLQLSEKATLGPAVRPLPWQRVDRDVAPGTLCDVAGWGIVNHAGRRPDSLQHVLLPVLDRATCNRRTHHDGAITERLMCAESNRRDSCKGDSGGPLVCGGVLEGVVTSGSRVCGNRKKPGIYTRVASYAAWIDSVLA
row,Structure (SMILES),pIC50
1,"COc1ccc(CC(=O)O)c(OCc2coc3c(NC(C)C)cc(-c4cccc(CN)c4)cc23)c1 [Compound 278c, 2-(2-((5-(3-(aminomethyl)phenyl)-7-(isopropylamino)benzofuran-3-yl)methoxy)-4-methoxyphenyl)acetic acid]",> 6.00
2,"CC(C)n1nc(COc2ccccc2CC(=O)O)c2cc(-c3cc(CN)cc(C4CCN(C)CC4)c3)ccc21 [Compound 333f, 2-(2-((5-(3-(aminomethyl)-5-(1-methylpiperidin-4-yl)phenyl)-1-isopropyl-1H-indazol-3-yl)methoxy)phenyl)acetic acid]",< 5.00
3,"Cc1oc2ccc(-c3cccc(CN)c3)cc2c1COc1ccccc1CC(=O)O [Compound 124f, 2-(2-((5-(3-(aminomethyl)phenyl)-2-methylbenzofuran-3-yl)methoxy)phenyl)acetic acid]",> 6.00
4,"N[C@H](CO)c1cccc(-c2ccc3occ(COc4ccccc4CC(=O)O)c3c2)c1 [Compound 51c, (S)-2-(2-((5-(3-(1-amino-2-hydroxyethyl)phenyl)benzofuran-3-yl)methoxy)phenyl)acetic acid]",> 6.00
5,"NCc1cccc(-c2ccc3oc(C(=O)O)c(COc4ccccc4CC(=O)O)c3c2)c1 [Compound 55d, 5-(3-(aminomethyl)phenyl)-3-((2-(carboxymethyl)phenoxy)methyl)benzofuran-2-carboxylic acid]",> 6.00
6,"NCc1cccc(-c2cc(CN3CCC(F)(F)C3)c3occ(COc4ccccc4CC(=O)O)c3c2)c1 [Compound 181f, 2-(2-((5-(3-(aminomethyl)phenyl)-7-((3,3-difluoropyrrolidin-1-yl)methyl)benzofuran-3-yl)methoxy)phenyl)acetic acid]",> 6.00
7,"CNc1cc(-c2cccc(CN)c2)cc2c(COc3ccccc3CC(=O)O)coc12 [Compound 152d, 2-(2-((5-(3-(aminomethyl)phenyl)-7-(methylamino)benzofuran-3-yl)methoxy)phenyl)acetic acid]",> 6.00
8,"COc1ccc(CC(=O)O)c(OCc2coc3c(C(F)(F)F)cc(-c4cccc(CN)c4)cc23)c1 [Compound 270c, 2-(2-((5-(3-(aminomethyl)phenyl)-7-(trifluoromethyl)benzofuran-3-yl)methoxy)-4-methoxyphenyl)acetic acid]",> 6.00
9,"NCc1cccc(-c2ccc3c(c2)c(COc2ccccc2CC(=O)O)nn3C2CC2)c1 [Compound 260c, 2-(2-((5-(3-(aminomethyl)phenyl)-1-cyclopropyl-1H-indazol-3-yl)methoxy)phenyl)acetic acid]",> 6.00
10,"CCCc1oc2ccc(-c3cccc(CN)c3F)cc2c1COc1cc(OC)ccc1CC(=O)O [Compound 297b, 2-(2-((5-(3-(aminomethyl)-2-fluorophenyl)-2-propylbenzofuran-3-yl)methoxy)-4-methoxyphenyl)acetic acid]",> 6.00
11,"CCc1oc2ccc(-c3cccc(CN)c3)cc2c1COc1ccccc1CC(=O)O [Compound 226c, 2-(2-((5-(3-(aminomethyl)phenyl)-2-ethylbenzofuran-3-yl)methoxy)phenyl)acetic acid]",> 6.00
12,"Cc1oc2c(cc(-c3cccc(CN)c3)c3occc32)c1COc1ccccc1CC(=O)O [Compound 233h, 2-(2-((5-(3-(aminomethyl)phenyl)-2-methylbenzo[1,2-b:3,4-b′]difuran-3-yl)methoxy)phenyl)acetic acid]",> 6.00
13,"CC(O)c1oc2ccc(-c3cccc(CN)c3)cc2c1COc1ccccc1CC(=O)O (centres unmarked) [Compound 125d, 2-(2-((5-(3-(aminomethyl)phenyl)-2-(1-hydroxyethyl)benzofuran-3-yl)methoxy)phenyl)acetic acid]",> 6.00
14,"COc1ccc(CC(=O)O)c(OCc2c(C)oc3ccc(-c4ccnc(CN)c4F)cc23)c1 [Compound 281d, 2-(2-((5-(2-(aminomethyl)-3-fluoropyridin-4-yl)-2-methylbenzofuran-3-yl)methoxy)-4-methoxyphenyl)acetic acid]",> 6.00
15,"NCc1cccc(-c2cc(OCc3ccncc3)c3occ(COc4ccccc4CC(=O)O)c3c2)c1 [Compound 166f, 2-(2-((5-(3-(aminomethyl)phenyl)-7-(pyridin-4-ylmethoxy)benzofuran-3-yl)methoxy)phenyl)acetic acid]",> 6.00
16,"NCc1cccc(-c2ccc3occ(COc4cc(C5CC5)ccc4CC(=O)O)c3c2)c1 [Compound 111d, 2-(2-((5-(3-(aminomethyl)phenyl)benzofuran-3-yl)methoxy)-4-cyclopropylphenyl)acetic acid]",> 6.00
17,"NCc1cccc(-c2cccc3c(COc4ccccc4CC(=O)O)coc23)c1 [Compound 36e, 2-(2-((7-(3-(aminomethyl)phenyl)benzofuran-3-yl)methoxy)phenyl)acetic acid]",< 5.00
18,"CN(C)Cc1cc(-c2cccc(CN)c2)cc2c(COc3ccccc3CC(=O)O)coc12 [Compound 82e, 2-(2-((5-(3-(aminomethyl)phenyl)-7-((dimethylamino)methyl)benzofuran-3-yl)methoxy)phenyl)acetic acid]",> 6.00

row,Structure (SMILES),pIC50
1,"NCc1cccc(-c2cc(CN3CC[C@H](F)C3)c3occ(COc4ccccc4CC(=O)O)c3c2)c1 [Compound 180d, (S)-2-(2-((5-(3-(aminomethyl)phenyl)-7-((3-fluoropyrrolidin-1-yl)methyl)benzofuran-3-yl)methoxy)phenyl)acetic acid]",> 6.00
2,"NCc1cccc(-c2cc(COc3cccc(CC(=O)O)c3)cc3cc(COc4ccccc4CC(=O)O)oc23)c1 [Compound 16e, 2-(3-((7-(3-(aminomethyl)phenyl)-2-((2-(carboxymethyl)phenoxy)methyl)benzofuran-5-yl)methoxy)phenyl)acetic acid]",> 6.00
3,"CC(C)n1nc(COc2ccccc2CC(=O)O)c2cc(-c3cc(CN)cc(C4CCOCC4)c3)ccc21 [Compound 332e, 2-(2-((5-(3-(aminomethyl)-5-(tetrahydro-2H-pyran-4-yl)phenyl)-1-isopropyl-1H-indazol-3-yl)methoxy)phenyl)acetic acid]",< 5.00
4,"NCc1cccc(-c2cc(N)c3oc(C(=O)O)c(COc4ccccc4CC(=O)O)c3c2)c1 [Compound 87c, 7-amino-5-(3-(aminomethyl)phenyl)-3-((2-(carboxymethyl)phenoxy)methyl)benzofuran-2-carboxylic acid]",> 6.00
5,"CC(C)Nc1cc(-c2cccc(CN)c2)cc2c(COc3ccccc3CC(=O)O)coc12 [Compound 148d, 2-(2-((5-(3-(aminomethyl)phenyl)-7-(isopropylamino)benzofuran-3-yl)methoxy)phenyl)acetic acid]",> 6.00
6,"NCc1cccc(-c2cc(C(F)F)c3occ(COc4ccccc4CC(=O)O)c3c2)c1 [Compound 262e, 2-(2-((5-(3-(aminomethyl)phenyl)-7-(difluoromethyl)benzofuran-3-yl)methoxy)phenyl)acetic acid]",> 6.00
7,"NCc1cccc(-c2cc(C#CC3CC3)c3occ(COc4ccccc4CC(=O)O)c3c2)c1 [Compound 294d, 2-(2-((5-(3-(aminomethyl)phenyl)-7-(cyclopropylethynyl)benzofuran-3-yl)methoxy)phenyl)acetic acid]",> 6.00
8,"COc1ccc(CC(=O)O)c(OCc2c(C(C)(C)C)oc3ccc(-c4cccc(CN)c4)cc23)c1 [Compound 174c, 2-(2-((5-(3-(aminomethyl)phenyl)-2-(tert-butyl)benzofuran-3-yl)methoxy)-4-methoxyphenyl)acetic acid]",> 6.00
9,"CC(C)(C)OC(=O)c1oc2ccc(-c3cccc(CN)c3)cc2c1COc1ccccc1CC(=O)O [Compound 86b, 2-(2-((5-(3-(aminomethyl)phenyl)-2-(tert-butoxycarbonyl)benzofuran-3-yl)methoxy)phenyl)acetic acid]",> 6.00
10,"N#Cc1ccc(CC(=O)O)c(OCc2coc3ccc(-c4cccc(CN)c4)cc23)c1 [Compound 57d, 2-(2-((5-(3-(aminomethyl)phenyl)benzofuran-3-yl)methoxy)-4-cyanophenyl)acetic acid]",> 6.00
11,"CCc1ccc(CC(=O)O)c(OCc2coc3ccc(-c4cccc(CN)c4F)cc23)c1 [Compound 12g, 2-(2-((5-(3-(aminomethyl)-2-fluorophenyl)benzofuran-3-yl)methoxy)-4-ethylphenyl)acetic acid]",> 6.00
12,"NCc1cccc(-c2ccc3c(c2)c(COc2ccccc2CC(=O)O)nn3C2CCCC2)c1 [Compound 292c, 2-(2-((5-(3-(aminomethyl)phenyl)-1-cyclopentyl-1H-indazol-3-yl)methoxy)phenyl)acetic acid]",> 6.00
13,"NCc1cccc(-c2cc(F)cc3cc(COc4ccccc4CC(=O)O)oc23)c1 [Compound 31f, 2-(2-((7-(3-(aminomethyl)phenyl)-5-fluorobenzofuran-2-yl)methoxy)phenyl)acetic acid]",> 6.00
14,"NCc1cccc(-c2cc(OCc3ccccn3)c3occ(COc4ccccc4CC(=O)O)c3c2)c1 [Compound 195f, 2-(2-((5-(3-(aminomethyl)phenyl)-7-(pyridin-2-ylmethoxy)benzofuran-3-yl)methoxy)phenyl)acetic acid]",> 6.00
15,"NCc1cccc(-c2ccc3c(COc4ccccc4CC(=O)O)coc3c2)c1F [Compound 95b, 2-(2-((6-(3-(aminomethyl)-2-fluorophenyl)benzofuran-3-yl)methoxy)phenyl)acetic acid]",< 5.00
16,"COc1ccc(CC(=O)O)c(OCc2c(C(F)F)oc3ccc(-c4cccc(CN)c4)cc23)c1 [Compound 215d, 2-(2-((5-(3-(aminomethyl)phenyl)-2-(difluoromethyl)benzofuran-3-yl)methoxy)-4-methoxyphenyl)acetic acid]",> 6.00
17,"COc1ccc(CC(=O)O)c(OCc2nn(C)c3ccc(-c4cccc(CN)c4F)cc23)c1 [Compound 309b, 2-(2-((5-(3-(aminomethyl)-2-fluorophenyl)-1-methyl-1H-indazol-3-yl)methoxy)-4-methoxyphenyl)acetic acid]",> 6.00
